# Experiment: accelerated stability tests
# Format: physicochemical
# Conditions: exposed to heat and/or humidity sources
smiles,measurement,value
"CC(=O)NCCCS(=O)(=O)O [form B, calcium acamprosate]",stability of the polymorphic form in accelerated stability tests,does not alter

# — patent publication US20110182953A1, “P[…] OF CALCIUM ACAMPROSATE” (priority 2009, published 2011)
